The record followed here is PMC7671475 (Journal of Inflammation Research, 2020).

Molecules are shown by their SMILES.

The target in this assay is Syk (spleen tyrosine kinase) (Homo sapiens, UniProt P43405). In words: ADP-Glo kinase assay with Promega Syk Kinase Enzyme System. Format: biochemical. (In general: ADP-Glo first removes unused ATP, then detects ADP through luciferase.)
A word on the IC50: it is the concentration that inhibits the measured activity by half. Compound `O=C(/C=C/c1ccc(O)c(O)c1)O[C@H](Cc1ccc(O)c(O)c1)C(=O)O` [RosA, rosmarinic acid] showed a half-maximal inhibitory concentration (IC50) of 114 nM.
For the compound `CC1=CC(=O)CC(C)(C)[C@@]1(O)/C=C/[C@@H](C)O[C@@H]1O[C@H](CO)[C@@H](O)[C@H](O)[C@H]1O` [RosS, roseoside], inhibition was half-maximal at 160 nM (IC50).
The result for `O=c1cc(-c2ccc(O)cc2)oc2c([C@@H]3O[C@H](CO)[C@@H](O)[C@H](O)[C@H]3O)c(O)c([C@@H]3O[C@H](CO)[C@@H](O)[C@H](O)[C@H]3O)c(O)c12` [Vic-2, vicenin-2] reads 284 nM.
